{"source": "patent US20160271248A1", "about": "“CXCR4 UP- AND DOWN-REGULATION FOR TREATMENT OF DISEASES OR DISORDERS” (priority 2013, published 2016)", "key": {"[1]": {"test_system": "layer II/III pyramidal neurons of the prefrontal cortex", "assay": "In vivo dendritic spine analysis (Golgi stain, Neurolucida)", "parameters": "species or system rat"}, "FHC": {"test_system": "FHC", "assay": "Neuronal FHC protein levels by Western blot in cultured cortical neurons", "assay_type": "cell-based, rat", "procedure": "Rat cortical neurons were cultured in the presence of a glial feeder layer, using the bilaminar cell culture model. Due to the presence of glia this culture system largely preserves the in vivo mechanisms of neuronal growth and differentiation, but also allows for direct studies on neurons, which were separated from glia at the time of analysis. Selected experiments were performed using glia-free neuronal cultures, as noted, using previously described protocols (Sengupta et al., 2009, J. Neurosci. 29:2534-2544). Neurons were transfected at the time of plating by Nucleofection (Amaxa), or after 8 days in culture by lipofectamine (Invitrogen). All experiments were conducted at 21 DIV, unless otherwise noted. HDAC4 and control (scrambled) siRNA were obtained from Ambion (s170677 and 4390843), and FHC/scrambled shRNA from GenScript (custom order; shRNA vector also expressed GFP).\nProtease and phosphatases inhibitors were added to both buffers.\nRat cortical neurons were cultured in serum-free media in the presence of a glial feeder layer (Shimizu, et al., 2011, J. Vis. Exp. 57). This culture system largely preserves the in vivo environment, due to the presence of glia; however, it still enables direct investigation of neurons that can be separated by the glia before experiments. Selected studies were also performed in neurons grown in the absence of glia for the entire culture period, as indicated (Sengupta, et al., 2009, J. Neurosci. 29(8):2534-44). All experiments were conducted between 8-13 days in vitro (DIV).\nTotal protein extracts were obtained using standard protocols. […] The following antibodies were used: anti-FHC (3998, Cell Signaling Technology, 1:1,000) and anti-β-actin (A2066, Sigma-Aldrich, 1:5,000)."}, "IL-1β": {"test_system": "IL-1β", "assay": "ELISA of secreted IL-1β in neuronal/glial co-cultures", "assay_type": "cell-based, rat", "conditions": "200 pM for 24 hours; vs controls", "procedure": "(§1) TNF-α and IL-1β secreted protein levels were determined from co-culture supernatants using commercially available rat TNF-α and IL-1β kits (Quantikine, R&D Systems). The assays were performed following the manufacturer's instructions. Absorbance was read at 450 nm using Wallac Victor2 1420 Multilabel Counter (PerkinElmer). The concentration of secreted TNF-α and IL-1β are expressed as picograms per milliliter (pg/mL); values were normalized to total protein content for each well."}, "TNF-α": {"test_system": "TNF-α", "assay": "ELISA of secreted TNF-α in neuronal/glial co-cultures", "assay_type": "cell-based, rat", "conditions": "200 pM for 24 hours; vs controls", "procedure": "as §1"}, "[2]": {"assay": "Attention set-shifting task after gp120 infusions", "assay_type": "in vivo, rat", "conditions": "SD rats, vs BSA", "procedure": "Rats (200-400 g, male Sprague-Dawley, Taconic Farms) were stereotaxically implanted, under isoflurane anesthesia, with stainless-steel cannulas placed 0.96 mm posterior and 3.18 mm lateral to bregma, 3.47 mm below the surface of the cranium at an angle of 22°. Four stainless-steel screws (#0-80) were placed around the cannula and acrylic dental cement was used to anchor the cannula. Animals were allowed seven days to recover before receiving a bilateral infusion of 1 μl of gp120IIIB (50 ng/μl) once daily for seven days via a 10 microliter Hamilton Syringe, needle diameter 0.48 mm; infusion rate=0.374 microliters/minute. Animals were food restricted and began behavioral testing 21 days following the final infusion.\nAnimals were tested in an attention set-shifting task (Birrell & Brown, 2000, J. Neurosci. 20(11); 4320-4324). On day 1 of testing, food restricted rats are habituated to the testing chamber for 20 minutes. The testing chamber (17″×22″×10″ H) is divided lengthwise by a plexiglass wall with a guillotine-style door creating a waiting area (one-third of the chamber), and a testing area (remaining two-thirds of the chamber). The far wall of the testing area (furthest from the waiting area) is bisected by a plexiglass divider that extended 9.25 inches; thus creating two distinct yet easily accessible sides of the testing area. The following day, rats are trained to dig in terra cotta pots to obtain a food reward (Frosted Cheerio). The food reward is progressively buried deeper in the pots, filled with corn cob bedding, until the rat reliably digs to retrieve the food reward. On day 3, rats undergo exemplar training, discriminating between sensory cues to determine which pot contains the food reward. […] If the rat begins digging in the incorrect pot, the pots are removed from the testing area, the rat is placed back into the waiting area, and the trial is recorded as incorrect. […]"}}, "data": [{"substance": "gp120IIIB: X4-using HIV-1 envelope protein gp120, from Immunodiagnostics", "values": [{"measurement": "average dendrite length", "setting": "[1]; gp120-treated rats vs BSA", "result": "no changes in the average dendrite length"}, {"measurement": "number of branching points", "setting": "[1]; gp120-treated rats vs BSA", "result": "reduced number of branching points"}, {"measurement": "spine density", "setting": "[1]; gp120IIIB 50 ng/μl, 1 μl bilateral infusion once daily for seven days, vs BSA", "result": "reduction of spine density in layer II/III PFC neurons"}, {"measurement": "neuronal expression of FHC", "setting": "FHC; in the presence of glial feeder layer, 200 pM, up to 24 hr", "result": "able to increase neuronal expression of FHC"}, {"measurement": "neuronal FHC protein levels", "setting": "FHC; pure neuronal cultures, 200 pM for 3, 6, or 24 hours", "result": "only transiently increased FHC"}, {"measurement": "secreted IL-1β levels in culture media", "setting": "IL-1β", "result": "significantly higher"}, {"measurement": "secreted TNF-α levels in culture media", "setting": "TNF-α", "result": "significantly higher"}, {"measurement": "attention set-shifting performance", "setting": "[2]; testing 21 days after final infusion", "result": "impaired attention set-shifting performance"}, {"measurement": "extra-dimensional shifts", "setting": "[2]", "result": "impaired in extra-dimensional shifts"}, {"measurement": "reversal learning (Reversal 2, Reversal 3)", "setting": "[2]", "result": "impaired in the reversal learning component of the task"}]}]}
